Here are results for 21 compounds from PubChem BioAssay AID328 (DTP/NCI, 2004).

“And” between values parts separate entries of the source, which are not always exact repeats. Identical values can stand only once. Inconclusive results and toxic doses are left out.

In this assay the test system is BDF1 mice, P388 leukemia ip, median survival T/C. Briefly: NCI In Vivo Anticancer Drug Screen. Data for tumor model P388 Leukemia (intraperitoneal) in B6D2F1 (BDF1) mice. The conditions noted are these: endpoint: median survival time, higher = longer survival. In a few lines:
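Antitumour effect was judged in vivo: survival in drug-treated mice, normalised to that of vehicle-dosed controls, gives the reported T/C.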

Setting [1] is: dose: 100.0 mg/kg/injection, schedule: Q04DX003 (ip), vehicle: saline with Tween-80.
Setting [2] is: dose: 200.0 mg/kg/injection, schedule: Q04DX003 (ip), vehicle: saline with Tween-80.
Where [3] appears, read: dose: 12.5 mg/kg/injection, schedule: Q04DX003 (ip), vehicle: saline.
The mark [4] stands for this setting: dose: 25.0 mg/kg/injection, schedule: Q04DX003 (ip), vehicle: saline.
The mark [5] stands for this setting: dose: 100.0 mg/kg/injection, schedule: Q01DX009 (ip), vehicle: saline with Tween-80.
Setting [6] is: dose: 200.0 mg/kg/injection, schedule: Q01DX009 (ip), vehicle: saline with Tween-80.
[7] abbreviates: dose: 400.0 mg/kg/injection, schedule: Q01DX009 (ip), vehicle: saline with Tween-80.
Where [8] appears, read: dose: 100.0 mg/kg/injection, schedule: Q04DX003 (ip), vehicle: saline.
Where [9] appears, read: dose: 200.0 mg/kg/injection, schedule: Q04DX003 (ip), vehicle: saline.
[10] abbreviates: dose: 400.0 mg/kg/injection, schedule: Q04DX003 (ip), vehicle: saline.
Where [11] appears, read: dose: 25.0 mg/kg/injection, schedule: Q01DX009 (ip), vehicle: saline with Tween-80.
Where [12] appears, read: dose: 50.0 mg/kg/injection, schedule: Q01DX009 (ip), vehicle: saline with Tween-80.
[13] abbreviates: dose: 50.0 mg/kg/injection, schedule: Q04DX003 (ip), vehicle: Klucel (hydroxypropylcellulose) (HPC).
Where [14] appears, read: dose: 100.0 mg/kg/injection, schedule: Q04DX003 (ip), vehicle: Klucel (hydroxypropylcellulose) (HPC).
Setting [15] is: dose: 200.0 mg/kg/injection, schedule: Q04DX003 (ip), vehicle: Klucel (hydroxypropylcellulose) (HPC).
Where [16] appears, read: dose: 400.0 mg/kg/injection, schedule: Q04DX003 (ip), vehicle: saline with Tween-80.

In the case of `Cc1nc(N2CC2)nc(N2CC2)c1[N+](=O)[O-]`, the T/C (dose: 0.62 mg/kg/injection, schedule: Q01DX010 (ip), vehicle: saline) is 122 % of control and the T/C (dose: 0.63 mg/kg/injection, schedule: Q01DX010 (ip), vehicle: saline) is 100 % of control.

For the compound `CN(C)C1C(=O)C(C(=O)NCN2CCOB(c3ccccc3)OCC2)=C(O)C2(O)C(O)=C3C(=O)C4C(O)=CC=CC4C(C)(O)C3CC12` (stereo not drawn), the T/C was 93 % of control (dose: 200.0 mg/kg/injection, schedule: Q04DX002 (ip), vehicle: saline with Tween-80) and 112 % of control (dose: 400.0 mg/kg/injection, schedule: Q04DX002 (ip), vehicle: saline with Tween-80).

Regarding `CCN(CC)CCN1C(=O)CN=C(c2ccccn2)c2cc(Cl)ccc21`, the T/C by setting is: (dose: 50.0 mg/kg/injection, schedule: Q04DX003 (ip), vehicle: saline with Tween-80) 95 % of control; under setting [1], 100 % of control; under setting [2], 105 % of control.

`ClCCCN1CCCCC1CCl` (stereo not drawn): the T/C was 102 % of control (dose: 3.12 mg/kg/injection, schedule: Q04DX003 (ip), vehicle: saline); 242 % of control (dose: 6.25 mg/kg/injection, schedule: Q01DX009 (ip), vehicle: saline); 254 % of control and 96 % of control (dose: 12.5 mg/kg/injection, schedule: Q01DX009 (ip), vehicle: saline); 151 % of control under setting [3]; 236 % of control and 182 % of control under setting [4]; 90 % of control (dose: 40.0 mg/kg/injection, schedule: Q04DX003 (ip), vehicle: saline).

As to `CC(/C=N/NC(N)=S)Cc1ccc(C(C)C)cc1` (stereo not drawn), the T/C reads like this: (dose: 7.0 mg/kg/injection, schedule: Q01DX009 (ip), vehicle: saline with Tween-80) 110 % of control; (dose: 7.0 mg/kg/injection, schedule: Q04DX003 (ip), vehicle: saline with Tween-80) 100 % of control; (dose: 14.0 mg/kg/injection, schedule: Q01DX009 (ip), vehicle: saline with Tween-80) 115 % of control; (dose: 14.0 mg/kg/injection, schedule: Q04DX003 (ip), vehicle: saline with Tween-80) 104 % of control; (dose: 28.0 mg/kg/injection, schedule: Q04DX003 (ip), vehicle: saline with Tween-80) 95 % of control.

Consider `NC(CC(=O)O)c1nn[nH]n1` (stereo not drawn), for which the T/C was 95 % of control under setting [5], 95 % of control under setting [6] and 100 % of control under setting [7].

Turning to `C[C@@H]1C[C@H]2C(=CC1=O)CC[C@@H]1[C@@H]2CC[C@]2(C)[C@@H](O)CC[C@@H]12`, the T/C under setting [5] was 100 % of control, the T/C under setting [6] is 109 % of control and the T/C under setting [7] is 109 % of control.

On to `CC1(C#N)CCC2c3ccccc3CCC2C1=O` (stereo not drawn), for which the T/C runs as follows: under setting [8], 100 % of control; under setting [9], 100 % of control; under setting [10], 100 % of control.

As to `CC(Nc1ccc(Br)cc1[N+](=O)[O-])C(=O)O` (stereo not drawn), the T/C runs as follows: under setting [11], 122 % of control; under setting [12], 94 % of control; under setting [5], 112 % of control; under setting [6], 114 % of control.

For `O=[N+]([O-])CC(O)C(O)C(O)C(O)CO` (stereo not drawn), the T/C (dose: 100.0 mg/kg/injection, schedule: Q01DX009 (ip), vehicle: saline) is 95 % of control; the T/C under setting [8] was 104 % of control; the T/C (dose: 200.0 mg/kg/injection, schedule: Q01DX009 (ip), vehicle: saline) is 100 % of control; the T/C under setting [9] is 100 % of control; the T/C (dose: 400.0 mg/kg/injection, schedule: Q01DX009 (ip), vehicle: saline) is 100 % of control; the T/C under setting [10] was 104 % of control.

In the case of `CCOC(=O)C(Cc1ccc(N(CCCl)CCCl)cc1)NC(=O)C(C)NC(C)=O` (stereo not drawn), the T/C is, setting by setting: (dose: 5.0 mg/kg/injection, schedule: Q04DX003 (ip), vehicle: water) 99 % of control; (dose: 10.0 mg/kg/injection, schedule: Q04DX003 (ip), vehicle: water) 99 % of control; (dose: 20.0 mg/kg/injection, schedule: Q04DX003 (ip), vehicle: water) 112 % of control; (dose: 40.0 mg/kg/injection, schedule: Q04DX003 (ip), vehicle: water) 116 % of control.

Consider `N=N/C(=C\c1c(O)[nH]c2ccccc12)c1ccccc1`, for which the T/C is 100 % of control under setting [13]; 108 % of control under setting [14]; 108 % of control under setting [15]; 90 % of control (dose: 400.0 mg/kg/injection, schedule: Q04DX003 (ip), vehicle: Klucel (hydroxypropylcellulose) (HPC)).

For `Nc1cccc(/C=C/c2ccnc3ccccc23)c1`, the T/C runs as follows: (dose: 25.0 mg/kg/injection, schedule: Q01DX001 (ip), vehicle: saline with Tween-80) 97 % of control; (dose: 50.0 mg/kg/injection, schedule: Q01DX001 (ip), vehicle: saline with Tween-80) 97 % of control; (dose: 100.0 mg/kg/injection, schedule: Q01DX001 (ip), vehicle: saline with Tween-80) 93 % of control and 110 % of control; (dose: 200.0 mg/kg/injection, schedule: Q01DX001 (ip), vehicle: saline with Tween-80) 119 % of control; (dose: 400.0 mg/kg/injection, schedule: Q01DX001 (ip), vehicle: saline with Tween-80) 102 % of control.

For `C1OC1CO[C@@H]1CO[C@H]2[C@@H]1OC[C@H]2OCC1CO1` (stereo partly drawn), the T/C by setting is: (dose: 264.0 mg/kg/injection, schedule: Q04DX003 (ip), vehicle: saline with Tween-80) 183 % of control; under setting [16], 195 % of control.

For the compound `O=C(S)c1ccccc1Br`, the T/C was 99 % of control (dose: 50.0 mg/kg/injection, schedule: Q01DX005 (ip), vehicle: saline with Tween-80); 92 % of control (dose: 100.0 mg/kg/injection, schedule: Q01DX005 (ip), vehicle: saline with Tween-80); 100 % of control (dose: 200.0 mg/kg/injection, schedule: Q01DX005 (ip), vehicle: saline with Tween-80).

Turning to `CCn1cnc2c(=S)nc[nH]c21`, the T/C is, setting by setting: (dose: 15.6 mg/kg/injection, schedule: Q01DX010 (ip), vehicle: saline) 100 % of control and 115 % of control; (dose: 31.3 mg/kg/injection, schedule: Q01DX010 (ip), vehicle: saline) 90 % of control and 105 % of control; (dose: 62.5 mg/kg/injection, schedule: Q01DX010 (ip), vehicle: saline) 104 % of control and 115 % of control.

As to `CCOC(=O)c1c[nH]c2c(OC)cccc2c1=O`, the T/C runs as follows: under setting [11], 93 % of control; under setting [12], 109 % of control; under setting [5], 109 % of control; under setting [1], 99 % of control; under setting [6], 109 % of control; under setting [2], 98 % of control. In addition, the T/C (dose: 300.0 mg/kg/injection, schedule: Q01DX009 (ip), vehicle: saline with Tween-80) is 90 % of control.

With `O=C1/C(=C/c2ccccc2)Cc2ccccc21`, the T/C under setting [11] is 96 % of control; the T/C under setting [12] is 96 % of control; the T/C under setting [5] is 94 % of control; the T/C under setting [1] was 107 % of control; the T/C under setting [6] is 96 % of control; the T/C under setting [2] was 100 % of control. Further, under setting [16], the T/C was 99 % of control.

With `CC1OCC(Br)([N+](=O)[O-])CO1` (stereo not drawn), the T/C by setting is: under setting [3], 99 % of control; under setting [4], 107 % of control.

As for `CC(=O)NN(c1ccccc1)c1ccccc1`, the T/C reads like this: under setting [13], 112 % of control; under setting [14], 91 % of control; under setting [15], 108 % of control.

Turning to `CC1=Nc2ccccc2/C1=C\c1c(C)[nH]c2ccccc12`, the T/C (dose: 5.5 mg/kg/injection, schedule: Q01DX009 (ip), vehicle: Klucel (hydroxypropylcellulose) (HPC)) was 109 % of control; the T/C (dose: 8.2 mg/kg/injection, schedule: Q01DX009 (ip), vehicle: Klucel (hydroxypropylcellulose) (HPC)) was 118 % of control; the T/C (dose: 12.5 mg/kg/injection, schedule: Q01DX009 (ip), vehicle: Klucel (hydroxypropylcellulose) (HPC)) is 161 % of control; the T/C (dose: 33.0 mg/kg/injection, schedule: Q01DX009 (ip), vehicle: Klucel (hydroxypropylcellulose) (HPC)) was 103 % of control and 109 % of control; the T/C (dose: 75.0 mg/kg/injection, schedule: Q01DX009 (ip), vehicle: Klucel (hydroxypropylcellulose) (HPC)) was 96 % of control and 113 % of control; the T/C (dose: 200.0 mg/kg/injection, schedule: Q01DX009 (ip), vehicle: Klucel (hydroxypropylcellulose) (HPC)) is 154 % of control.
